We go through eight molecules from patent EP4251148B1, “HISTAMINE H3 RECEPTOR ANTAGONISTS/INVERSE AGONISTS FOR THE TREATMENT OF AUTISM SPECTRUM DISORDER” (Richter Gedeon Nyrt., priority 2020, dated 2022).

In one series the target is T1, H3 receptor (Rattus norvegicus, UniProt Q9QYN8).
T1 construct: from tissue; host or cells: whole living rat (central H3 receptors); animals from Janvier Elevage, France
The series can be described thus: imetit-induced dipsogenia test. The series is classed as in vivo, Harlan Wistar rats. As to conditions: rats, test compound p.o. 30 min before imetit 3 mg/kg sc.; reversal of water intake. The source says: Brain penetrant histamine H3 receptor agonists such as R-α-methylhistamine and imetit cause an acute increase in water intake in rodents (Galici et al., 2009; Barbier et al., 2007; Clapham and Kilpatrick, 1993; Garbarg et al., 1993). This dipsogenic effect is specific to H3 receptor activation as it can be antagonized selectively by centrally acting H3 antagonists (e.g., thioperamide or clobenpropit) and not by H1 or H2 […] such as mepyramide or loxtidine, respectively (Fox et al., 2002; Clapham and Kilpatrick, 1992). Therefore, the inhibition of H3 receptor-mediated dipsogenia can be used as a central pharmacodynamic measure of in vivo H3 receptor function following peripheral administration of antagonist/inverse agonist compounds (Raddatz et al., 2012; Medhurst et al., 2007; Fox et al., 2005).
The protocol has been derived from Clapham and Kilpatrick (1992) with modifications. Group-housed adult male Harlan Wistar rats (Janvier Elevage, France) (340-500 g at the time of testing) were used as experimental animals. Rats were repeatedly used for testing for a maximum of four to five times with one week of wash-out period between testing days. Before commencing drug-testing sessions, animals were first habituated to the test procedure without receiving any drug treatment. On habituation days animals were administered 5 mL/kg distilled water p.o. and 30 min later 1 mL/kg physiological saline was injected sc., while drinking water was withdrawn from the home-cages. After a further 30 min, rats were isolated in test cages, where they had access to tap water, but not to chow. Water consumption was measured 30 min later. Rats that had drunken at least 0.2 g water during this period were randomized into treatment groups. On experimental days animals were administered the test compound or vehicle p.o. and 30 min later 3 mg/kg of the H3 receptor agonist imetit was injected sc. Investigational compounds were given in a volume of 5 mL/kg. Imetit dihydrobromide (Tocris, UK) was dissolved in physiological saline and administered in a volume of 1 mL/kg. Directly after treatment with imetit, drinking water was withdrawn from the home-cages. After an additional 30 min, rats were isolated to test cages, where they had access to tap water, but not to chow. Water consumption was measured after a free drinking period of 10 min.
Means ± S.E. of water intake (in grams) were calculated for each group. Significance of drug effect was determined by ANOVA followed by the post hoc Duncan-test. Significance was considered at the p<0.05 level. The percental reversal of imetit-induced water intake was calculated from the group means using the formula as follows, percental reversal of dipsogenia equals 1-((IME-DRUG)/(IME-VEH))·100, where IME is water intake of the p.o. vehicle plus imetit group, VEH is water intake of p.o. vehicle plus sc. vehicle group, and DRUG is water intake of p.o. test compound plus sc. […] group. Percental reversal was plotted for each dose and an ED50 value was calculated from the fitted curve (reversal values greater than 100% were taken into account as 100% reversal) based on linear regression.

Series [1] relates to prenatal valproate model of ASD in mice. As to conditions: 3 mg/kg intraperitoneally; cited from earlier work.
The subject of the next series is monoamine oxidase A. As to conditions: human and rat enzyme; cited from earlier work.
The next series concerns monoamine oxidase B. The conditions noted are these: human and rat enzyme; slight preference for monoamine oxidase B; cited from earlier work.
For series [2] the following is noted: 3 mg/kg intraperitoneally; cited from earlier work.
For series [3], the system named is prenatally valproate treated rats. Description: tactile sensitivity measurement with von Frey filaments in the prenatal valproate model. In kind it is in vivo, Wistar rats. The conditions noted are these: p.o., 60 min after treatment, 18-day-old rats. The source says:
The prenatal valproate (VPA) model has excellent construct and face validity, therefore it is a widely accepted disease model of ASD. With respect to face validity, prenatal VPA exposure may lead to socio-communicational defects, excessive repetitive behaviors and increased sensitivity of various modalities (e.g., touch). […] Compounds that produced efficacy signals in ASD subjects comprise eg., oxytocin (Andari et al., PNAS 2010, 107:4389-4394).
In this method, time-mated female Wistar rats are administered a single dose of VPA (300 mg/kg, i.p.) on gestational day 12.5. Offspring are housed according to standard laboratory conditions until time of behavioral testing. Animals are housed in groups of 4 in conventional cages and maintained at 22-24°C on a standard 12-hour light/dark cycle, with food and water available ad libitum. […]
During the measurement with von Frey filaments, 18-day-old rats were placed separately in small cages (dimensions: 7 x 7 x 9 cm) with mesh floors. […] First, a baseline sensitivity value was determined, and animals were randomized into treatment groups based on this baseline. Sixty min after p.o. treatment sensitivity was measured again. A 50% sensitivity threshold was calculated based on the value of the last measured fiber thickness and the application pattern of the various filament thicknesses. […]

For the next series, the system named is BALB/C mice. The series can be described thus: three-chamber assay, social novelty session, BALB/C mouse model of ASD. The series is classed as in vivo. The conditions noted are these: 10 mg/kg (top dose); ** p<0.01 vs. familiar. The source says: The BALB/c mouse is a low-sociability, inbred line that is accepted as an idiopathic model of ASD (Brodkin, 2007; Burket et al., 2020; Ellegood, 2015; Jacome et al., 2011). Although the precise background of behavior is not known, the line carries a loss of function single nucleotide polymorphism in the tryptophane hydroxylase gene causing a 50% reduction in enzyme function (Russo et al., 2018). […] This model also has some predictive validity as some compounds that produced efficacy signals in humans have also been active in BALB/c mice such as D-cycloserine (Deutsch et al., 2012) or oxytocin (Teng et al., 2013).
The three-chamber assay was performed in an 8-channel LABORAS™ sociability system (Metris b.v., Hoofdorp, The Netherlands). […] Consequently, movements of target mice were not recorded. Just like in the classical LABORASTM set-up (Van de Weerd et al., 2001; Quinn et al., 2003), mechanical vibration generated by movement of the animals was transformed to electrical signals that were analyzed and the trajectory of the animals was determined. […]
During the behavioral assays, test mice were habituated first to the center compartment of the three-chamber apparatus with the guillotine doors closed for 2 min. […] During this test session the time spent in the center chamber as well as with direct contact or no contact on the social versus non-social side was recorded. […]

A value given as a limit tells only on which side of the number the result lay.

T1 sequence (Q9QYN8 whole entry): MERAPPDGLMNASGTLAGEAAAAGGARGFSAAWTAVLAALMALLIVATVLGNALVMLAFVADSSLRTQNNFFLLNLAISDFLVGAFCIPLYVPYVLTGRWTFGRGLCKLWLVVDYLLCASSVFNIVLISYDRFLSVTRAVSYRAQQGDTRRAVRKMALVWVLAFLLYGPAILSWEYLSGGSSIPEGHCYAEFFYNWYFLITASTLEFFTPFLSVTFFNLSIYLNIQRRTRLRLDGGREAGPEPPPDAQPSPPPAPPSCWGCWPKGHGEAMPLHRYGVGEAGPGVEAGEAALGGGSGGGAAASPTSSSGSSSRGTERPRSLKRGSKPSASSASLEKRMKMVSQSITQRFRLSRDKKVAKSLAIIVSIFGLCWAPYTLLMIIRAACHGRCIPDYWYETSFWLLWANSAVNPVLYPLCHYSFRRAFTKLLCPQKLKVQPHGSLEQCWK

On to `O=C(c1ccc(CN2CCOCC2)cc1)N1CCN(C2CC2)CC1` [bavisant, (4-cyclopropylpiperazin-1-yl)-[4-(morpholin-4-ylmethyl)phenyl]methanone], for which the “imetit-induced dipsogenia ED50” value on H3 receptor is < 0.3 mg/kg p.o.

With `O=C(c1ccc(OCCCc2cnc[nH]2)cc1)C1CC1` [ciproxifan], in series [1], the “social deficits and excessive repetitive behavior” value is “improved social deficits and excessive repetitive behavior”. The “inhibition of monoamine oxidase A” value in the series on monoamine oxidase A is given as “micromolar concentration range”. For the same molecule, in the series with monoamine oxidase B, the “inhibition of monoamine oxidase B” value was “micromolar concentration range”. Moreover, the plasma exposures result in series [2] is “micromolar range”.

Consider `Cn1nc(N2CCC(OC(=O)N3CCN(C4CCC4)CC3)CC2)ccc1=O` [LML-134, 1-(1-methyl-6-oxo-1,6-dihydropyridazin-3-yl)piperidin-4-yl 4-cyclobutylpiperazine-1-carboxylate], for which the “imetit-induced dipsogenia ED50” value at H3 receptor is recorded as < 1 mg/kg p.o. In series [3] (10 mg/kg (top dose), ++ p<0.01 vs. VPA), the “tactile hypersensitivity (threshold level of paw withdrawal to von Frey filaments)” value was “reversed this tactile hypersensitivity”. Moreover, the “social novelty (time spent with investigation of the novel animal)” value in the series with BALB/C mice is listed as “improve social novelty”.

In the case of `C[C@@H]1CCCN1CCc1cc2cc(-c3ccc(C#N)cc3)ccc2o1` [ABT-239, 4-(2-{2-[(2R)-2-Methylpyrrolidin-1-yl]ethyl}-benzofuran-5-vl)benzonitrile], the “imetit-induced dipsogenia ED50” value on H3 receptor was found to be 0.26 mg/kg p.o.

`CNC(=O)c1ccc(Oc2ccc3c(c2)CCN(C2CCC2)CC3)nc1` [GSK-189254, 6-[(3-cyclobutyl-1,2,4,5-tetrahydro-3-benzazepin-7-yl)oxy]-N-methylpyridine-3-carboxamide]: the “imetit-induced dipsogenia ED50” value at H3 receptor came out at 0.14 mg/kg p.o. The “tactile hypersensitivity (threshold level of paw withdrawal to von Frey filaments)” value in series [3] (0.1 mg/kg (middle dose), + p<0.05 vs. VPA, inverted U-shaped dose-response curve) is “reversed this tactile hypersensitivity”.

`CCNC(=O)C1CC(F)(c2ccc(CN3CCCC3)c(F)c2)C1` (stereo not drawn) [PF-03654746, trans-N-Ethyl-3-fluoro-3-[3-fluoro-4-(1pyrrolidinylmethyl)phenyl]cyclobutanecarboxamide]: the “imetit-induced dipsogenia ED50” value on H3 receptor is given as 0.78 mg/kg p.o.

For the molecule `Clc1ccc(CCCOCCCN2CCCCC2)cc1` [pitolisant, 1-[3-[3-(4-chlorophenyl)propoxy]propyl]piperidine], on H3 receptor, the “imetit-induced dipsogenia ED50” value was determined as 11 mg/kg p.o.

For `O=C(CN1CCOCC1)Nc1ccc(OC2CCN(C3CCC3)CC2)cc1` [samelisant, N-{4-[(1-cyclobutylpiperidin-4-yl)oxy]phenyl}-2-(morpholin-4-yl)acetamide], the “imetit-induced dipsogenia ED50” value on H3 receptor is reported as < 1 mg/kg p.o.
